Article PMC5986797, “Laminin heparin-binding peptides bind to several growth factors and enhance diabetic wound healing” (Nature Communications, 2018)
One block for each substance: values may come before it.

Experiments:
[1] = tested on: recombinant human laminin isoforms (–111, –211, –332, –411, –421, –511, and –521); experiment: ELISA: binding of full-length laminin isoforms to absorbed GFs and CXCL chemokines; settings: 50 nM GF coated, 10 nM laminin, n = 4; for binding to all tested laminin isoforms (ELISA, A450 nm): signals greater than 0.1 indicate binding; for binding to the other laminin isoforms (ELISA, A450 nm): isoforms other than laminin-332
Experimental: Ninety-six-well ELISA plates (med-binding, Greiner Bio-One) were coated with 50 nM GFs in 100 µL/well of phosphate-buffered saline (PBS) at 37 °C for more than 2 h. After blocking with 2% BSA solution containing PBS and 0.05% Tween 20 (PBS-T), 10 nM recombinant human laminin isoforms (–111, –211, –332, –411, –421, –511, and –521) (>95% purity tested by SDS-PAGE, BioLamina) in 100 µL/well PBS were added. Bound laminin was detected with 100 µL/well rabbit anti-human LAMC1 polyclonal antibody (Assay Biotech, Catalog No. C13072, 1:1000 dilution in PBS) or rabbit anti-human LAMA3 polyclonal antibody (Assay Biotech, Catalog No. C13066, 1:1000 dilution in PBS). After incubation with biotinylated anti-rabbit antibody for 60 min at room temperature (RT), HRP-conjugated streptavidin (Jackson ImmunoResearch) was added. After 60 min of incubation at RT, 50 μL of TMB substrate (Sigma-Aldrich) was added. The reactions were stopped by adding 25 μL of 2 N H2SO4. Subsequently, the absorbance at 450 nm was measured with a reference of 570 nm.

[2] = ELISA: biotinylated heparin binding to laminin peptides; design: key to Interaction with Heparin: ++ indicates high affinities; + indicates medium/low affinities; settings: for binding to heparin (ELISA): 10 µg/mL laminin peptide coated (legend; method 1 μg/mL), 10 µg/mL biotinylated heparin, vs BSA-coated wells, n = 4; for Interaction with Heparin: summary table
Experimental: (§1) ELISA tests were performed as described above. In brief, […] recombinant protein, laminin alpha 4 LG domain recombinant protein (R&D Systems), laminin alpha 5 LG domain recombinant protein (LD BioPharma), or laminin peptide (sequences are described in Supplementary Table 1, chemically synthesized by Genscript) in PBS for 2 h at 37 °C. A concentration of 1 μg/mL of BSA served as non-binding protein control. After blocking with 2% BSA PBS-0.05% Tween 20 (PBS-T) solution, 1 μg/mL of the recombinant human proteins (VEGF-A121, VEGF-A165, PlGF-1, PlGF-2, PDGF-BB, or FGF-2) or 10 μg/mL of biotinylated heparin (Sigma-Aldrich) were added. Bound GF was detected with biotinylated antibodies for human VEGF-A, PlGF, PDGF-BB (R&D Systems, Catalog No. DY220, 1:180 dilution), or FGF-2 (R&D Systems). The antibodies were detected by streptavidin-HRP (R&D Systems).

[3] = tested on: VEGF-A165; experiment: ELISA: VEGF-A165 binding to laminin LG domain / laminin peptide; design: species or system human; settings: 10 µg/mL laminin peptide coated (legend; method 1 μg/mL); 1 μg/mL GF; vs BSA-coated wells; n = 4
Experimental: as §1

[4] = tested on: GF; experiment: ELISA: GF binding to laminin peptides, stated for the tested GFs together; design: species or system human; key: ++ indicates high affinities; + indicates medium/low affinities; settings: summary table
Experimental: (§2) ELISA tests were performed as described above. In brief, ELISA plates were coated with 1 μg/mL of laminin alpha 3 LG domain recombinant protein, laminin alpha 4 LG domain recombinant protein (R&D Systems), laminin alpha 5 LG domain recombinant protein (LD BioPharma), or laminin peptide (sequences are described in Supplementary Table 1, chemically synthesized by Genscript) in PBS for 2 h at 37 °C. A concentration of 1 μg/mL of BSA served as non-binding protein control. After blocking with 2% BSA PBS-0.05% Tween 20 (PBS-T) solution, 1 μg/mL of the recombinant human proteins (VEGF-A121, VEGF-A165, PlGF-1, PlGF-2, PDGF-BB, or FGF-2) or 10 μg/mL of biotinylated heparin (Sigma-Aldrich) were added. Bound GF was detected with biotinylated antibodies for human VEGF-A, PlGF, PDGF-BB (R&D Systems, Catalog No. DY220, 1:180 dilution), or FGF-2 (R&D Systems). The antibodies were detected by streptavidin-HRP (R&D Systems).

[5] = tested on: recombinant human syndecan-1, syndecan-2, syndecan-3, and syndecan-4; experiment: ELISA: syndecan binding to laminin peptides; design: key to Interaction with Syndecan: ++ indicates high affinities; + indicates medium/low affinities; settings: for binding to syndecans 1–4 (ELISA): 10 µg/mL laminin peptide coated (legend; method 1 μg/mL), 1 μg/mL histidine-tagged syndecan, vs BSA-coated wells, n = 8; for Interaction with Syndecan: summary table
Experimental: ELISA tests were performed as described above. […] A concentration of 1 μg/mL of BSA served as non-binding protein control. After blocking with 2% BSA PBS-T solution, 1 μg/mL of the recombinant human syndecan-1, syndecan-2, syndecan-3, and syndecan-4 (all syndecan proteins are histidine-tagged; SinoBiological) were added. Bound GF was detected with anti-histidine tag antibody (BioLegend, Catalog No. 562504, 1:1000 dilution).

[6] = tested on: human lung fibroblasts; experiment: Cell adhesion assay, fibroblasts; type: cell-based; design: key to Cell adhesion Fibroblast: ++ indicates high affinities; + indicates medium/low affinities; settings: for Cell adhesion Fibroblast: summary table; for fibroblast attachment on peptide-coated surfaces: without EDTA, 1 μg/mL peptide coated, 3000 cells/well, 30 min, 37 °C, FGM-2, 1% FBS, CyQUANT, vs BSA, n = 10
Experimental: (§3) A total of 96-well plates (non-tissue culture treated, Greiner Bio-One) were pre-coated with 1 μg/mL with laminin HBD peptides in PBS for 2 h at 37 °C, followed by blocking with 2% BSA PBS for 1 h at RT. Cell adhesion assays were performed using human lung fibroblasts (Lonza) in FGM-2 medium (Lonza) or human umbilical vein endothelial cells (HUVEC; Lonza) in EGM-2 medium (Lonza) supplemented with 1% fetal bovine serum (FBS) and 100 µg/mL VEGF-A165, with or without 5 mM EDTA (Sigma-Aldrich). Cells were plated at 3000 cells/well on laminin peptide pre-coated plates and incubated for 30 min at 37 °C, 5% CO2. Then, the medium was removed, and wells were quickly washed three times with PBS. Cell numbers were quantified using a CyQUANT assay, according to the manufacturer’s instructions (Invitrogen). All cell lines were checked for mycoplasma contamination and used in passages from 5 to 8.

[7] = tested on: PlGF-2; experiment: ELISA: PlGF-2 binding to laminin LG domain / laminin peptide; design: species or system human; settings: 10 µg/mL laminin peptide coated (legend; method 1 μg/mL); 1 μg/mL GF; vs BSA-coated wells; n = 4
Experimental: as §2

[8] = tested on: PDGF-BB; experiment: ELISA: PDGF-BB binding to laminin LG domain / laminin peptide; design: species or system human; settings: 10 µg/mL laminin peptide coated (legend; method 1 μg/mL); 1 μg/mL GF; vs BSA-coated wells; n = 4
Experimental: as §2

[9] = tested on: FGF-2; experiment: ELISA: FGF-2 binding to laminin LG domain / laminin peptide; design: species or system human; settings: 10 µg/mL laminin peptide coated (legend; method 1 μg/mL); 1 μg/mL GF; vs BSA-coated wells; n = 4
Experimental: as §2

[10] = tested on: human umbilical vein endothelial cells (HUVEC); experiment: Cell adhesion assay, HUVEC; type: cell-based; design: key to Cell adhesion HUVEC: ++ indicates high affinities; + indicates medium/low affinities; settings: for Cell adhesion HUVEC: summary table; for HUVEC attachment on peptide-coated surfaces: without EDTA, 1 μg/mL peptide coated, 3000 cells/well, 30 min, 37 °C, 100 ng/mL VEGF-A165, 1% FBS, CyQUANT, n = 10
Experimental: as §3, with “Cell adhesion assays were performed using human lung fibroblasts (Lonza) in FGM-2 medium (Lonza) or human umbilical vein endothelial cells (HUVEC; Lonza) in EGM-2 medium (Lonza) supplemented with 1% fetal bovine serum (FBS) and 100 µg/mL VEGF-A165, with or without 5 mM EDTA (Sigma-Aldrich).” left out

binding to all tested laminin isoforms (ELISA, A450 nm) [1]: not
Substance: BMP-4: bone morphogenetic protein, PeproTech

binding to the other laminin isoforms (ELISA, A450 nm) [1]: not to the other isoforms | binding to laminin-332 (ELISA, A450 nm) [1]: bound weakly
Substance: CXCL-11: CXCL chemokine, PeproTech

binding to the other laminin isoforms (ELISA, A450 nm) [1]: not to the other isoforms | binding to laminin-332 (ELISA, A450 nm) [1]: bound weakly
Substance: CXCL-12α: CXCL chemokine, PeproTech

binding to all tested laminin isoforms (ELISA, A450 nm) [1]: bound
Substance: CXCL-12γ: C–X–C motif ligand (CXCL)-12γ, R&D systems

binding to all tested laminin isoforms (ELISA, A450 nm) [1]: did not
Substance: FGF-1: fibroblast growth factor, PeproTech

binding to all tested laminin isoforms (ELISA, A450 nm) [1]: bound
Substance: FGF-2: fibroblast growth factor, PeproTech

binding to all tested laminin isoforms (ELISA, A450 nm) [1]: bound
Substance: FGF-18: fibroblast growth factor, PeproTech

binding to all tested laminin isoforms (ELISA, A450 nm) [1]: weakly bound
Substance: HB-EGF: heparin-binding epidermal growth factor, PeproTech

Substance: IGF-1: insulin-like growth factor, PeproTech
binding to all tested laminin isoforms (ELISA, A450 nm) [1]: Neither IGF-1 nor IGF-2 displayed significant binding

Substance: IGF-2: insulin-like growth factor, PeproTech
binding to all tested laminin isoforms (ELISA, A450 nm) [1]: Neither IGF-1 nor IGF-2 displayed significant binding

binding to heparin (ELISA) [2]: do not show heparin binding | binding to VEGF-A165 (ELISA), peptides [3]: bound | Interaction with GF [4]: + | binding to syndecans 1–4 (ELISA) [5]: weak binding | Interaction with Syndecan [5]: +
Substance: KNSFMALYLSKGR [LAMA3_3031–3043, chemically synthesized human laminin LAMA3 LG4 peptide, 13 aa]
Cell adhesion Fibroblast [6]: + | fibroblast attachment on peptide-coated surfaces [6]: enhancement of fibroblast attachment

binding to all tested laminin isoforms (ELISA, A450 nm) [1]: strong binding
Substance: NT-3: neurotrophin, PeproTech

binding to all tested laminin isoforms (ELISA, A450 nm) [1]: bound
Substance: PDGF-AA: platelet-derived growth factor, PeproTech

binding to all tested laminin isoforms (ELISA, A450 nm) [1]: bound
Substance: PDGF-BB: platelet-derived growth factor, PeproTech

binding to heparin (ELISA) [2]: bound to heparin | Interaction with Heparin [2]: ++ | binding to VEGF-A165 (ELISA), peptides [3]: bound | binding to PlGF-2 (ELISA), peptides [7]: bound | binding to PDGF-BB (ELISA), peptides [8]: bound | binding to FGF-2 (ELISA), peptides [9]: bound | Interaction with GF [4]: ++ | binding to syndecans 1–4 (ELISA) [5]: significant binding | Interaction with Syndecan [5]: ++
Substance: PLFLLHKKGKNLSKPKASQNKKGGKSK [LAMA4_1408–1434, chemically synthesized human laminin LAMA4 linker peptide, 27 aa]

binding to heparin (ELISA) [2]: bound to heparin | Interaction with Heparin [2]: ++ | binding to VEGF-A165 (ELISA), peptides [3]: preferentially bound | binding to FGF-2 (ELISA), peptides [9]: preferentially bound | Interaction with GF [4]: + | binding to syndecans 1–4 (ELISA) [5]: weak binding | Interaction with Syndecan [5]: +
Substance: PPFLMLLKGSTRFNKTKTFR [LAMA3_2932–2951, chemically synthesized human laminin LAMA3 LG3–LG4 linker peptide, 20 aa]
Cell adhesion Fibroblast [6]: + | fibroblast attachment on peptide-coated surfaces [6]: enhancement of fibroblast attachment | Cell adhesion HUVEC [10]: + | HUVEC attachment on peptide-coated surfaces [10]: promoted HUVEC attachment

binding to heparin (ELISA) [2]: bound to heparin | Interaction with Heparin [2]: ++ | binding to PDGF-BB (ELISA), peptides [8]: not statistically significant | Interaction with GF [4]: + | binding to syndecans 1–4 (ELISA) [5]: significant binding | Interaction with Syndecan [5]: ++
Substance: TLFLAHGRLVYMFNVGHKKLKIR [LAMA4_1521–1543, chemically synthesized human laminin LAMA4 LG4 peptide, 23 aa]
Cell adhesion Fibroblast [6]: + | fibroblast attachment on peptide-coated surfaces [6]: enhancement of fibroblast attachment | Cell adhesion HUVEC [10]: + | HUVEC attachment on peptide-coated surfaces [10]: promoted HUVEC attachment

binding to heparin (ELISA) [2]: bound to heparin | Interaction with Heparin [2]: ++ | binding to VEGF-A165 (ELISA), peptides [3]: preferentially bound | binding to PlGF-2 (ELISA), peptides [7]: preferentially bound | Interaction with GF [4]: + | binding to syndecans 1–4 (ELISA) [5]: significant binding | Interaction with Syndecan [5]: ++
Substance: TPGLGPRGLQATARKASRRSRQPARHPACML [LAMA5_3300–3330, chemically synthesized human laminin LAMA5 linker peptide, 31 aa]

binding to all tested laminin isoforms (ELISA, A450 nm) [1]: bound only weakly
Substance: βNGF: β-nerve growth factor, PeproTech
